Measured values reported in ChEMBL document CHEMBL1201861, “Genomics of Drug Sensitity in Cancer screening data, Wellcome Trust Sanger Institute”.

What was measured:
LB647-SCLC = assay: cells; format: functional, cell-based; settings: Homo sapiens
Description: SANGER: Inhibition of human LB647-SCLC cell growth in a cell viability assay.

MFE-296 = assay: SANGER: Inhibition of human MFE-296 cell growth in a cell viability assay.; format: functional, cell-based
UACC-812 = assay: cells; format: functional, cell-based; settings: Homo sapiens
Description: SANGER: Inhibition of human UACC-812 cell growth in a cell viability assay.

YT = assay: cells; format: functional, cell-based; settings: Homo sapiens
Description: SANGER: Inhibition of human YT cell growth in a cell viability assay.

IM-9 = assay: SANGER: Inhibition of human IM-9 cell growth in a cell viability assay.; format: functional, cell-based
SIMA = assay: cells; format: functional, cell-based, Homo sapiens; settings: Homo sapiens, SIMA
Description: SANGER: Inhibition of human SIMA cell growth in a cell viability assay.

IST-SL2 = assay: cells; format: functional, cell-based; settings: Homo sapiens
Description: SANGER: Inhibition of human IST-SL2 cell growth in a cell viability assay.

NCI-H187 = assay: cells; format: functional, cell-based; settings: Homo sapiens
Description: SANGER: Inhibition of human NCI-H187 cell growth in a cell viability assay.

PLC-PRF-5 = assay: cells; format: functional, cell-based; settings: Homo sapiens
Description: SANGER: Inhibition of human PLC-PRF-5 cell growth in a cell viability assay.

SNG-M = assay: cells; format: functional, cell-based; settings: Homo sapiens
Description: SANGER: Inhibition of human SNG-M cell growth in a cell viability assay.

ECC4 = assay: cells; format: functional, cell-based; settings: Homo sapiens
Description: SANGER: Inhibition of human ECC4 cell growth in a cell viability assay.

IMR-5 = assay: cells; format: functional, cell-based; settings: Homo sapiens
Description: SANGER: Inhibition of human IMR-5 cell growth in a cell viability assay.

CCF-STTG1 = assay: cells; format: functional, cell-based; settings: Homo sapiens
Description: SANGER: Inhibition of human CCF-STTG1 cell growth in a cell viability assay.

CHP-126 = assay: cells; format: functional, cell-based; settings: Homo sapiens
Description: SANGER: Inhibition of human CHP-126 cell growth in a cell viability assay.

TE-15 = assay: cells; format: functional, cell-based; settings: Homo sapiens
Description: SANGER: Inhibition of human TE-15 cell growth in a cell viability assay.

NCI-H2196 = assay: cells; format: functional, cell-based; settings: Homo sapiens
Description: SANGER: Inhibition of human NCI-H2196 cell growth in a cell viability assay.

Calu-1 = assay: SANGER: Inhibition of human Calu-1 cell growth in a cell viability assay.; format: functional, cell-based
EVSA-T = assay: cells; format: functional, cell-based, Homo sapiens; settings: Homo sapiens, EVSA-T
Description: SANGER: Inhibition of human EVSA-T cell growth in a cell viability assay.

NCI-H838 = assay: cells; format: functional, cell-based; settings: Homo sapiens
Description: SANGER: Inhibition of human NCI-H838 cell growth in a cell viability assay.

EHEB = assay: cells; format: functional, cell-based; settings: Homo sapiens
Description: SANGER: Inhibition of human EHEB cell growth in a cell viability assay.

NCI-H1618 = assay: cells; format: functional, cell-based; settings: Homo sapiens
Description: SANGER: Inhibition of human NCI-H1618 cell growth in a cell viability assay.

HCT-15 = assay: cells; format: functional, cell-based, Homo sapiens; settings: Homo sapiens, HCT-15
Description: SANGER: Inhibition of human HCT-15 cell growth in a cell viability assay.

RT-4 = assay: SANGER: Inhibition of human RT4 cell growth in a cell viability assay.; format: functional, cell-based; settings: Homo sapiens, RT-4
SNU-C1 = assay: cells; format: functional, cell-based; settings: Homo sapiens
Description: SANGER: Inhibition of human SNU-C1 cell growth in a cell viability assay.

EFE-184 = assay: cells; format: functional, cell-based; settings: Homo sapiens
Description: SANGER: Inhibition of human EFE-184 cell growth in a cell viability assay.

HCC1143 = assay: cells; format: functional, cell-based; settings: Homo sapiens
Description: SANGER: Inhibition of human HCC1143 cell growth in a cell viability assay.

Caov-3 cell line = assay: cells; format: functional, cell-based; settings: Homo sapiens
Description: SANGER: Inhibition of human Caov-3 cell growth in a cell viability assay.

OPM-2 = assay: cells; format: functional, cell-based; settings: Homo sapiens
Description: SANGER: Inhibition of human OPM-2 cell growth in a cell viability assay.

MDA-MB-468 = assay: cells; format: functional, cell-based; settings: Homo sapiens
Description: SANGER: Inhibition of human MDA-MB-468 cell growth in a cell viability assay.

CAL-148 = assay: cells; format: functional, cell-based; settings: Homo sapiens
Description: SANGER: Inhibition of human CAL-148 cell growth in a cell viability assay.

MRK-nu-1 = assay: cells; format: functional, cell-based; settings: Homo sapiens
Description: SANGER: Inhibition of human MRK-nu-1 cell growth in a cell viability assay.

SNU-475 = assay: cells; format: functional, cell-based; settings: Homo sapiens
Description: SANGER: Inhibition of human SNU-475 cell growth in a cell viability assay.

NCI-H2227 = assay: cells; format: functional, cell-based; settings: Homo sapiens
Description: SANGER: Inhibition of human NCI-H2227 cell growth in a cell viability assay.

NCI-H716 = assay: cells; format: functional, cell-based; settings: Homo sapiens
Description: SANGER: Inhibition of human NCI-H716 cell growth in a cell viability assay.

TT = assay: cells; format: functional, cell-based; settings: Homo sapiens
Description: SANGER: Inhibition of human TT cell growth in a cell viability assay.

NCI-H1963 = assay: cells; format: functional, cell-based; settings: Homo sapiens
Description: SANGER: Inhibition of human NCI-H1963 cell growth in a cell viability assay.

NB1 = assay: cells; format: functional, cell-based; settings: Homo sapiens
Description: SANGER: Inhibition of human NB1 cell growth in a cell viability assay.

PF-382 = assay: cells; format: functional, cell-based; settings: Homo sapiens
Description: SANGER: Inhibition of human PF-382 cell growth in a cell viability assay.

NCI-H345 = assay: cells; format: functional, cell-based; settings: Homo sapiens
Description: SANGER: Inhibition of human NCI-H345 cell growth in a cell viability assay.

L-540 = assay: cells; format: functional, cell-based; settings: Homo sapiens
Description: SANGER: Inhibition of human L-540 cell growth in a cell viability assay.

DV-90 = assay: cells; format: functional, cell-based; settings: Homo sapiens
Description: SANGER: Inhibition of human DV-90 cell growth in a cell viability assay.

NCI-H460 = assay: cells; format: functional, cell-based, Homo sapiens; settings: Homo sapiens, NCI-H460
Description: SANGER: Inhibition of human NCI-H460 cell growth in a cell viability assay.

BC1 cell line = assay: SANGER: Inhibition of human BC-1 cell growth in a cell viability assay.; format: functional, cell-based
CA46 = assay: cells; format: functional, cell-based; settings: Homo sapiens
Description: SANGER: Inhibition of human CA46 cell growth in a cell viability assay.

SK-CO-1 = assay: cells; format: functional, cell-based; settings: Homo sapiens
Description: SANGER: Inhibition of human SK-CO-1 cell growth in a cell viability assay.

IPC-298 = assay: SANGER: Inhibition of human IPC-298 cell growth in a cell viability assay.; format: functional, cell-based
COLO 205 = assay: cells; format: functional, cell-based; settings: Homo sapiens
Description: SANGER: Inhibition of human COLO-205 cell growth in a cell viability assay.

BL-41 = assay: cells; format: functional, cell-based; settings: Homo sapiens
Description: SANGER: Inhibition of human BL-41 cell growth in a cell viability assay.

NCI-H322M = assay: cells; format: functional, cell-based; settings: Homo sapiens
Description: SANGER: Inhibition of human NCI-H322M cell growth in a cell viability assay.

CFPAC-1 = assay: cells; format: functional, cell-based; settings: Homo sapiens
Description: SANGER: Inhibition of human CFPAC-1 cell growth in a cell viability assay.

OC-314 = assay: cells; format: functional, cell-based; settings: Homo sapiens
Description: SANGER: Inhibition of human OC-314 cell growth in a cell viability assay.

LU-135 = assay: cells; format: functional, cell-based; settings: Homo sapiens
Description: SANGER: Inhibition of human LU-135 cell growth in a cell viability assay.

YH-13 = assay: cells; format: functional, cell-based; settings: Homo sapiens
Description: SANGER: Inhibition of human YH-13 cell growth in a cell viability assay.

RH-18 = assay: cells; format: functional, cell-based; settings: Homo sapiens, Rh18
Description: SANGER: Inhibition of human RH-18 cell growth in a cell viability assay.

Kasumi 1 = assay: cells; format: functional, cell-based; settings: Homo sapiens
Description: SANGER: Inhibition of human KASUMI-1 cell growth in a cell viability assay.

SKM-1 = assay: SANGER: Inhibition of human SKM-1 cell growth in a cell viability assay.; format: functional, cell-based
EW-12 = assay: SANGER: Inhibition of human EW-12 cell growth in a cell viability assay.; format: functional, cell-based
NCI-H128 = assay: SANGER: Inhibition of human NCI-H128 cell growth in a cell viability assay.; format: functional, cell-based
RL95-2 = assay: cells; format: functional, cell-based; settings: Homo sapiens
Description: SANGER: Inhibition of human RL95-2 cell growth in a cell viability assay.

## C[C@]1(O)C[C@@H](c2nc(-c3ccc4ccc(-c5ccccc5)nc4c3)c3c(N)nccn32)C1 [LINSITINIB]
LB647-SCLC
  IC50: 1770 nM
MFE-296
  IC50: > 2560 nM
UACC-812
  IC50: > 2560 nM
YT
  IC50: > 2560 nM
IM-9
  IC50: > 2560 nM
SIMA
  IC50: 1070 nM
IST-SL2
  IC50: > 2560 nM
NCI-H187
  IC50: > 2560 nM
PLC-PRF-5
  IC50: > 2560 nM
SNG-M
  IC50: > 2560 nM
ECC4
  IC50: > 2560 nM
IMR-5
  IC50: > 2560 nM
CCF-STTG1
  IC50: > 2560 nM
CHP-126
  IC50: > 2560 nM
TE-15
  IC50: > 2560 nM
NCI-H2196
  IC50: > 2560 nM
Calu-1
  IC50: > 2560 nM
EVSA-T
  IC50: > 2560 nM
NCI-H838
  IC50: > 2560 nM
EHEB
  IC50: > 2560 nM
NCI-H1618
  IC50: > 2560 nM
HCT-15
  IC50: > 2560 nM
RT-4
  IC50: > 2560 nM
SNU-C1
  IC50: 293 nM
EFE-184
  IC50: > 2560 nM
HCC1143
  IC50: 2450 nM
Caov-3 cell line
  IC50: > 2560 nM
OPM-2
  IC50: 2100 nM
MDA-MB-468
  IC50: > 2560 nM
CAL-148
  IC50: > 2560 nM
MRK-nu-1
  IC50: > 2560 nM
SNU-475
  IC50: > 2560 nM
NCI-H2227
  IC50: > 2560 nM
NCI-H716
  IC50: > 2560 nM
TT
  IC50: > 2560 nM
NCI-H1963
  IC50: > 2560 nM
NB1
  IC50: > 2560 nM
PF-382
  IC50: > 2560 nM
NCI-H345
  IC50: > 2560 nM
L-540
  IC50: > 2560 nM
DV-90
  IC50: > 2560 nM
NCI-H460
  IC50: > 2560 nM
BC1 cell line
  IC50: > 2560 nM
CA46
  IC50: > 2560 nM
SK-CO-1
  IC50: > 2560 nM
IPC-298
  IC50: > 2560 nM
COLO 205
  IC50: 105 nM
BL-41
  IC50: > 2560 nM
NCI-H322M
  IC50: > 2560 nM

## CN(Cc1cnc2nc(N)nc(N)c2n1)c1ccc(C(=O)N[C@@H](CCC(=O)O)C(=O)O)cc1 [METHOTREXATE]
CFPAC-1
  IC50: > 200 nM
OC-314
  IC50: > 200 nM
LU-135
  IC50: > 200 nM
YH-13
  IC50: > 200 nM
RH-18
  IC50: > 200 nM

## O=C(c1cc(Cc2n[nH]c(=O)c3ccccc23)ccc1F)N1CCN(C(=O)C2CC2)CC1 [OLAPARIB]
Kasumi 1
  IC50: 4400 nM
CFPAC-1
  IC50: > 5000 nM
OC-314
  IC50: > 5000 nM
LU-135
  IC50: > 5000 nM
YH-13
  IC50: > 5000 nM
RH-18
  IC50: > 5000 nM

## C=CCc1cccc(/C=N/NC(=O)CN2CCN(Cc3ccccc3)CC2)c1O [PAC-1]
LB647-SCLC
  IC50: > 2560 nM
MFE-296
  IC50: > 2560 nM
UACC-812
  IC50: > 2560 nM
YT
  IC50: > 2560 nM
IM-9
  IC50: > 2560 nM
SIMA
  IC50: > 2560 nM
IST-SL2
  IC50: > 2560 nM
NCI-H187
  IC50: > 2560 nM
PLC-PRF-5
  IC50: > 2560 nM
SNG-M
  IC50: 1220 nM
ECC4
  IC50: > 2560 nM
IMR-5
  IC50: > 2560 nM
CCF-STTG1
  IC50: > 2560 nM
CHP-126
  IC50: 918 nM
TE-15
  IC50: > 2560 nM
NCI-H2196
  IC50: > 2560 nM
Calu-1
  IC50: > 2560 nM
EVSA-T
  IC50: > 2560 nM
NCI-H838
  IC50: > 2560 nM
EHEB
  IC50: > 2560 nM
NCI-H1618
  IC50: > 2560 nM
HCT-15
  IC50: 1580 nM
RT-4
  IC50: > 2560 nM
SNU-C1
  IC50: > 2560 nM
EFE-184
  IC50: > 2560 nM
HCC1143
  IC50: > 2560 nM
Caov-3 cell line
  IC50: > 2560 nM
OPM-2
  IC50: > 2560 nM
MDA-MB-468
  IC50: > 2560 nM
CAL-148
  IC50: > 2560 nM
MRK-nu-1
  IC50: > 2560 nM
SNU-475
  IC50: > 2560 nM
NCI-H2227
  IC50: > 2560 nM
NCI-H716
  IC50: > 2560 nM
TT
  IC50: > 2560 nM
NCI-H1963
  IC50: > 2560 nM
NB1
  IC50: > 2560 nM
PF-382
  IC50: 1060 nM
NCI-H345
  IC50: > 2560 nM
L-540
  IC50: 2200 nM
DV-90
  IC50: > 2560 nM
NCI-H460
  IC50: > 2560 nM
BC1 cell line
  IC50: 1100 nM
CA46
  IC50: 2020 nM
SK-CO-1
  IC50: > 2560 nM
IPC-298
  IC50: > 2560 nM
COLO 205
  IC50: > 2560 nM
BL-41
  IC50: 1450 nM
NCI-H322M
  IC50: > 2560 nM

## Cn1cc(C2=C(c3ccc(Cl)cc3Cl)C(=O)NC2=O)c2ccccc21 [SB-216763]
CFPAC-1
  IC50: > 10000 nM
OC-314
  IC50: > 10000 nM
LU-135
  IC50: > 10000 nM
HCT-15
  IC50: > 10000 nM
YH-13
  IC50: > 10000 nM
NCI-H460
  IC50: > 10000 nM
RH-18
  IC50: > 10000 nM

## CO[C@H]1C[C@@H]2CC[C@@H](C)[C@@](O)(O2)C(=O)C(=O)N2CCCC[C@H]2C(=O)O[C@H]([C@H](C)C[C@@H]2CC[C@@H](O)[C@H](OC)C2)CC(=O)[C@H](C)/C=C(\C)[C@@H](O)[C@@H](OC)C(=O)[C@H](C)C[C@H](C)/C=C/C=C/C=C/1C [SIROLIMUS]
LB647-SCLC
  IC50: > 100 nM
Kasumi 1
  IC50: > 100 nM
SKM-1
  IC50: > 100 nM
UACC-812
  IC50: > 100 nM
YT
  IC50: > 100 nM
IM-9
  IC50: > 100 nM
SIMA
  IC50: > 100 nM
IST-SL2
  IC50: > 100 nM
EW-12
  IC50: > 100 nM
NCI-H187
  IC50: > 100 nM
ECC4
  IC50: 44.8 nM
IMR-5
  IC50: > 100 nM
CHP-126
  IC50: > 100 nM
TE-15
  IC50: 1.36 nM
NCI-H2196
  IC50: > 100 nM
NCI-H128
  IC50: > 100 nM
EVSA-T
  IC50: > 100 nM
EHEB
  IC50: > 100 nM
SNU-C1
  IC50: > 100 nM
OPM-2
  IC50: 4.15 nM
CAL-148
  IC50: > 100 nM
MRK-nu-1
  IC50: < 0.391 nM
NCI-H716
  IC50: > 100 nM
NCI-H1963
  IC50: > 100 nM
NB1
  IC50: > 100 nM
PF-382
  IC50: 96.8 nM
NCI-H345
  IC50: > 100 nM
L-540
  IC50: 10.4 nM
RL95-2
  IC50: 0.107 nM
BC1 cell line
  IC50: 31.3 nM
CA46
  IC50: > 100 nM
BL-41
  IC50: 43.7 nM
NCI-H322M
  IC50: > 100 nM
